# Results: ChEMBL document CHEMBL1201861, “Genomics of Drug Sensitity in Cancer screening data, Wellcome Trust Sanger Institute”
# Columns and labels:
# Assay in all cases: cells
# Details in all cases: Homo sapiens
# [1] = tested on: COLO-800; assay type: functional, cell-based;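 further: growth inhibition of COLO-800 cells, read out with a cell viability assay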
# Description: SANGER: Inhibition of human COLO-800 cell growth in a cell viability assay.
# [2] = tested on: COR-L88; assay type: functional, cell-based;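 further: growth inhibition of COR-L88 cells, read out with a cell viability assay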
# Description: SANGER: Inhibition of human COR-L88 cell growth in a cell viability assay.
# [3] = tested on: Calu-6; assay type: functional, cell-based;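 further: growth of human Calu-6 cells, read out by a cell viability assay, IC50 marking inhibition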
# Description: SANGER: Inhibition of human Calu-6 cell growth in a cell viability assay.
# [4] = tested on: DMS-114; assay type: functional, cell-based
# [5] = tested on: ES1; assay type: functional, cell-based;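 further: growth inhibition of ES1 cells, read out with a cell viability assay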
# Description: SANGER: Inhibition of human ES1 cell growth in a cell viability assay.
# [6] = tested on: ES3; assay type: functional, cell-based;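 further: growth inhibition of ES3 cells, read out with a cell viability assay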
# Description: SANGER: Inhibition of human ES3 cell growth in a cell viability assay.
# [7] = tested on: ES8; assay type: functional, cell-based;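 further: growth inhibition of human ES8 cells, read out with a cell viability assay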
# Description: SANGER: Inhibition of human ES8 cell growth in a cell viability assay.
# [8] = tested on: EW-1; assay type: functional, cell-based;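 further: growth inhibition of the human EW-1 cell line, read out by a cell viability assay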
# Description: SANGER: Inhibition of human EW-1 cell growth in a cell viability assay.
# [9] = tested on: EW-18; assay type: functional, cell-based;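 further: growth inhibition of EW-18 cells, read out by a cell viability assay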
# Description: SANGER: Inhibition of human EW-18 cell growth in a cell viability assay.
# [10] = tested on: EW-24; assay type: functional, cell-based;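 further: human EW-24 cancer cell line, growth inhibition read out via a cell viability assay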
# Description: SANGER: Inhibition of human EW-24 cell growth in a cell viability assay.
# [11] = tested on: EW-3; assay type: functional, cell-based;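 further: cell viability assay read-out, IC50 reflects inhibition of growth of the EW-3 cells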
# Description: SANGER: Inhibition of human EW-3 cell growth in a cell viability assay.
# [12] = tested on: EOL1; assay type: functional, cell-based;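 further: growth inhibition of EoL-1 cells, read out by a cell viability assay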
# Description: SANGER: Inhibition of human EoL-1-cell cell growth in a cell viability assay.
# [13] = tested on: GB-1; assay type: functional, cell-based;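 further: growth of GB-1 cells judged by a viability assay, IC50 marks the concentration inhibiting growth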
# Description: SANGER: Inhibition of human GB-1 cell growth in a cell viability assay.
# [14] = tested on: GCIY; assay type: functional, cell-based;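 further: growth inhibition of the human GCIY cell line, read out by a cell viability assay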
# Description: SANGER: Inhibition of human GCIY cell growth in a cell viability assay.
# [15] = tested on: GOTO; assay type: functional, cell-based;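 further: growth inhibition of GOTO cells, read out by a cell viability assay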
# Description: SANGER: Inhibition of human GOTO cell growth in a cell viability assay.
# [16] = tested on: HCE-4; assay type: functional, cell-based;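 further: cell viability assay measuring inhibition of growth in the human HCE-4 cell line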
# Description: SANGER: Inhibition of human HCE-4 cell growth in a cell viability assay.
# [17] = tested on: HT-144; assay type: functional, cell-based
# Description: SANGER: Inhibition of human HT-144 cell growth in a cell viability assay.
# [18] = tested on: HuTu80; assay type: functional, cell-based, HUTU-80;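 further: growth inhibition of HuTu80 human cells, determined with a cell viability readout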
# Description: SANGER: Inhibition of human HUTU-80 cell growth in a cell viability assay.
# [19] = tested on: IA-LM; assay type: functional, cell-based;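 further: cell viability assay measuring growth inhibition of human IA-LM cells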
# Description: SANGER: Inhibition of human IA-LM cell growth in a cell viability assay.
# [20] = tested on: IST-MEL1; assay type: functional, cell-based;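 further: growth inhibition of the cell line, read out with a cell viability assay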
# Description: SANGER: Inhibition of human IST-MEL1 cell growth in a cell viability assay.
# [21] = tested on: IST-SL1; assay type: functional, cell-based;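 further: growth inhibition of human IST-SL1 cells, read out with a cell viability assay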
# Description: SANGER: Inhibition of human IST-SL1 cell growth in a cell viability assay.
# [22] = tested on: JAR; assay type: functional, cell-based;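 further: growth inhibition of human JAR cells determined with a cell viability assay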
# Description: SANGER: Inhibition of human JAR cell growth in a cell viability assay.
# [23] = tested on: K5; assay type: functional, cell-based
# Description: SANGER: Inhibition of human K5 cell growth in a cell viability assay.
# [24] = tested on: KGN; assay type: functional, cell-based;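 further: growth inhibition of KGN cells, read out with a cell viability assay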
# Description: SANGER: Inhibition of human KGN cell growth in a cell viability assay.
# [25] = tested on: KM12; assay type: functional, cell-based;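 further: KM12 cell growth inhibition, read out with a cell viability assay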
# Description: SANGER: Inhibition of human KM12 cell growth in a cell viability assay.
# [26] = tested on: KMOE-2; assay type: functional, cell-based;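 further: growth inhibition of human KMOE-2 cells, read out with a cell viability assay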
# Description: SANGER: Inhibition of human KMOE-2 cell growth in a cell viability assay.
# [27] = tested on: KY821; assay type: functional, cell-based;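 further: growth inhibition of human KY821 cells, read out by a cell viability assay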
# Description: SANGER: Inhibition of human KY821 cell growth in a cell viability assay.
# [28] = tested on: LB2241-RCC; assay type: functional, cell-based;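 further: cell viability assay measuring how strongly the cultured human renal carcinoma line is prevented from growing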
# Description: SANGER: Inhibition of human LB2241-RCC cell growth in a cell viability assay.
# [29] = tested on: LB771-HNC; assay type: functional, cell-based;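 further: growth inhibition of LB771-HNC human cells, read out with a cell viability assay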
# Description: SANGER: Inhibition of human LB771-HNC cell growth in a cell viability assay.
# [30] = tested on: LB831-BLC; assay type: functional, cell-based;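 further: growth inhibition of LB831-BLC cells, read out with a cell viability assay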
# Description: SANGER: Inhibition of human LB831-BLC cell growth in a cell viability assay.
# [31] = tested on: LNCaP-Clone-FGC; assay type: functional, cell-based
# Description: SANGER: Inhibition of human LNCaP-Clone-FGC cell growth in a cell viability assay.
# [32] = tested on: LS-123; assay type: functional, cell-based
# Description: SANGER: Inhibition of human LS-123 cell growth in a cell viability assay.
# [33] = tested on: LS-513; assay type: functional, cell-based
# Description: SANGER: Inhibition of human LS-513 cell growth in a cell viability assay.
# [34] = tested on: MZ7-mel; assay type: functional, cell-based;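 further: growth inhibition of human MZ7-mel cells, measured by a cell viability assay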
# Description: SANGER: Inhibition of human MZ7-mel cell growth in a cell viability assay.
# [35] = tested on: NB6; assay type: functional, cell-based;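 further: growth inhibition of NB6 cells, read out by a cell viability assay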
# Description: SANGER: Inhibition of human NB6 cell growth in a cell viability assay.
# [36] = tested on: NCI-H1155; assay type: functional, cell-based;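 further: cell growth inhibition measured by a viability assay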
# Description: SANGER: Inhibition of human NCI-H1155 cell growth in a cell viability assay.
# [37] = tested on: NCI-H209; assay type: functional, cell-based;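 further: growth inhibition of human NCI-H209 cells, measured by a cell viability assay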
# Description: SANGER: Inhibition of human NCI-H209 cell growth in a cell viability assay.
# [38] = tested on: NCI-H446; assay type: functional, cell-based;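 further: growth inhibition of NCI-H446 cells determined by a cell viability assay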
# Description: SANGER: Inhibition of human NCI-H446 cell growth in a cell viability assay.
# [39] = tested on: NCI-H69; assay type: functional, cell-based;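 further: growth inhibition of the cell line, read out with a cell viability assay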
# Description: SANGER: Inhibition of human NCI-H69 cell growth in a cell viability assay.
# [40] = tested on: SNU-5; assay type: functional, cell-based;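 further: cell viability readout used to measure growth inhibition in human NCI-SNU-5 cells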
# Description: SANGER: Inhibition of human NCI-SNU-5 cell growth in a cell viability assay.
# [41] = tested on: OCI-AML2; assay type: functional, cell-based;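 further: growth inhibition of OCI-AML2 cells, read out with a cell viability assay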
# Description: SANGER: Inhibition of human OCI-AML2 cell growth in a cell viability assay.
# [42] = tested on: OS-RC-2; assay type: functional, cell-based;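 further: growth inhibition of human OS-RC-2 cells, measured by a cell viability assay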
# Description: SANGER: Inhibition of human OS-RC-2 cell growth in a cell viability assay.
# [43] = tested on: P30-OHK; assay type: functional, cell-based;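 further: growth inhibition of the P30-OHK cell line, read out with a cell viability assay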
# Description: SANGER: Inhibition of human P30-OHK cell growth in a cell viability assay.
# [44] = tested on: QIMR-WIL; assay type: functional, cell-based;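 further: growth inhibition of QIMR-WIL cells, read out with a cell viability assay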
# Description: SANGER: Inhibition of human QIMR-WIL cell growth in a cell viability assay.
# [45] = tested on: RKO; assay type: functional, cell-based;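 further: growth inhibition of human RKO cells, read out with a cell viability assay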
# Description: SANGER: Inhibition of human RKO cell growth in a cell viability assay.
# [46] = tested on: RXF 393; assay type: functional, cell-based;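 further: growth inhibition of human RXF 393 cells, read out with a cell viability assay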
# Description: SANGER: Inhibition of human RXF393 cell growth in a cell viability assay.
# [47] = tested on: SBC-1; assay type: functional, cell-based;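 further: cell viability assay measuring growth inhibition of the SBC-1 cell line, IC50 being the concentration that halves growth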
# Description: SANGER: Inhibition of human SBC-1 cell growth in a cell viability assay.
# [48] = tested on: SHP77; assay type: functional, cell-based, SHP-77;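 further: growth inhibition of human SHP-77 cells measured by a cell viability assay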
# Description: SANGER: Inhibition of human SHP-77 cell growth in a cell viability assay.
# [49] = tested on: SJSA-1; assay type: functional, cell-based;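 further: growth inhibition of human SJSA-1 cells, read out through a cell viability measurement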
# Description: SANGER: Inhibition of human SJSA-1 cell growth in a cell viability assay.
# [50] = tested on: SK-MEL-2; assay type: functional, cell-based;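 further: growth inhibition of human SK-MEL-2 cells measured with a cell viability assay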
# Description: SANGER: Inhibition of human SK-MEL-2 cell growth in a cell viability assay.
# [51] = tested on: SK-N-FI; assay type: functional, cell-based;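 further: cell viability assay measuring growth inhibition of human SK-N-FI cells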
# Description: SANGER: Inhibition of human SK-N-FI cell growth in a cell viability assay.
# [52] = tested on: SK-PN-DW; assay type: functional, cell-based;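 further: growth inhibition measured with a viability assay on these cells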
# Description: SANGER: Inhibition of human SK-PN-DW cell growth in a cell viability assay.
# [53] = tested on: SNU-C2B; assay type: functional, cell-based
# Description: SANGER: Inhibition of human SNU-C2B cell growth in a cell viability assay.
# [54] = tested on: SW872; assay type: functional, cell-based
# Description: SANGER: Inhibition of human SW872 cell growth in a cell viability assay.
# [55] = tested on: A101D; assay type: functional, cell-based
# Description: SANGER: Inhibition of human A101D cell growth in a cell viability assay.
# [56] = tested on: A3-KAW; assay type: functional, cell-based
# Description: SANGER: Inhibition of human A3-KAW cell growth in a cell viability assay.
# [57] = tested on: A388; assay type: functional, cell-based
# Description: SANGER: Inhibition of human A388 cell growth in a cell viability assay.
# [58] = tested on: A704; assay type: functional, cell-based
# Description: SANGER: Inhibition of human A704 cell growth in a cell viability assay.
# [59] = tested on: ACN; assay type: functional, cell-based
# Description: SANGER: Inhibition of human ACN cell growth in a cell viability assay.
# [60] = tested on: BB30-HNC; assay type: functional, cell-based
# Description: SANGER: Inhibition of human BB30-HNC cell growth in a cell viability assay.
# [61] = tested on: BE-13; assay type: functional, cell-based
# Description: SANGER: Inhibition of human BE-13 cell growth in a cell viability assay.
# [62] = tested on: C8166; assay type: functional, cell-based
# Description: SANGER: Inhibition of human C8166 cell growth in a cell viability assay.
# [63] = tested on: TE-10; assay type: functional, cell-based
# Description: SANGER: Inhibition of human TE-10 cell growth in a cell viability assay.
# [64] = tested on: TE-6; assay type: functional, cell-based
# Description: SANGER: Inhibition of human TE-6 cell growth in a cell viability assay.
# [65] = tested on: CCRF-CEM; assay type: functional, cell-based
# Description: SANGER: Inhibition of human CCRF-CEM cell growth in a cell viability assay.
# [66] = tested on: COLO-668; assay type: functional, cell-based
# Description: SANGER: Inhibition of human COLO-668 cell growth in a cell viability assay.
smiles,measurement,setting,value
C/C(O)=C(\C#N)C(=O)Nc1cc(Br)ccc1Br,IC50,[1],> 16 µM
same,IC50,[2],> 16000 nM
same,IC50,[3],> 16000 nM
same,IC50,[4],> 16000 nM
same,IC50,[5],> 16000 nM
same,IC50,[6],> 16 µM
same,IC50,[7],> 16000 nM
same,IC50,[8],> 16000 nM
same,IC50,[9],> 16 µM
same,IC50,[10],> 16000 nM
same,IC50,[11],> 16 µM
same,IC50,[12],> 16000 nM
same,IC50,[13],> 16000 nM
same,IC50,[14],> 16000 nM
same,IC50,[15],> 16000 nM
same,IC50,[16],> 16000 nM
same,IC50,[17],> 16000 nM
same,IC50,[18],> 16000 nM
same,IC50,[19],> 16000 nM
same,IC50,[20],> 16000 nM
same,IC50,[21],> 16000 nM
same,IC50,[22],> 16000 nM
same,IC50,[23],> 16000 nM
same,IC50,[24],> 16000 nM
same,IC50,[25],> 16000 nM
same,IC50,[26],> 16 µM
same,IC50,[27],> 16000 nM
same,IC50,[28],> 16 µM
same,IC50,[29],> 16000 nM
same,IC50,[30],> 16000 nM
same,IC50,[31],> 16 µM
same,IC50,[32],> 16000 nM
same,IC50,[33],> 16 µM
same,IC50,[34],> 16000 nM
same,IC50,[35],> 16000 nM
same,IC50,[36],> 16000 nM
same,IC50,[37],> 16000 nM
same,IC50,[38],> 16000 nM
same,IC50,[39],> 16000 nM
same,IC50,[40],> 16 µM
same,IC50,[41],> 16000 nM
same,IC50,[42],> 16000 nM
same,IC50,[43],> 16 µM
same,IC50,[44],> 16000 nM
same,IC50,[45],> 16000 nM
same,IC50,[46],> 16000 nM
same,IC50,[47],> 16000 nM
same,IC50,[48],> 16 µM
same,IC50,[49],> 16000 nM
same,IC50,[50],> 16000 nM
same,IC50,[51],> 16000 nM
same,IC50,[52],> 16000 nM
same,IC50,[53],> 16000 nM
same,IC50,[54],> 16000 nM
same,IC50,[55],> 16000 nM
same,IC50,[56],> 16000 nM
same,IC50,[57],> 16000 nM
same,IC50,[58],> 16000 nM
same,IC50,[59],> 16000 nM
same,IC50,[60],> 16000 nM
same,IC50,[61],> 16000 nM
same,IC50,[62],> 16 µM
same,IC50,[63],> 16000 nM
same,IC50,[64],> 16000 nM
same,IC50,[65],> 16000 nM
same,IC50,[66],> 16000 nM
Cc1n[nH]c2ccc(-c3cncc(OC[C@@H](N)Cc4c[nH]c5ccccc45)c3)cc12 [A-443654],IC50,[1],> 1.02 µM
same,IC50,[2],738 nM
same,IC50,[3],137 nM
same,IC50,[4],983 nM
same,IC50,[5],739 nM
same,IC50,[6],> 1.02 µM
same,IC50,[7],151 nM
same,IC50,[8],221 nM
same,IC50,[9],> 1.02 µM
same,IC50,[10],837 nM
same,IC50,[11],> 1.02 µM
same,IC50,[12],165 nM
same,IC50,[13],199 nM
same,IC50,[14],261 nM
same,IC50,[15],366 nM
same,IC50,[16],104 nM
same,IC50,[17],153 nM
same,IC50,[18],114 nM
same,IC50,[19],200 nM
same,IC50,[20],447 nM
same,IC50,[21],434 nM
same,IC50,[22],156 nM
same,IC50,[23],428 nM
same,IC50,[24],118 nM
same,IC50,[25],141 nM
same,IC50,[26],> 1.02 µM
same,IC50,[27],246 nM
same,IC50,[28],> 1.02 µM
same,IC50,[29],222 nM
same,IC50,[30],194 nM
same,IC50,[31],> 1.02 µM
same,IC50,[32],337 nM
same,IC50,[33],> 1.02 µM
same,IC50,[34],564 nM
same,IC50,[35],480 nM
same,IC50,[36],564 nM
same,IC50,[37],246 nM
same,IC50,[38],395 nM
same,IC50,[39],318 nM
same,IC50,[40],> 1.02 µM
same,IC50,[41],210 nM
same,IC50,[42],175 nM
same,IC50,[43],> 1.02 µM
same,IC50,[44],256 nM
same,IC50,[45],136 nM
same,IC50,[46],657 nM
same,IC50,[47],160 nM
same,IC50,[48],> 1.02 µM
same,IC50,[49],376 nM
same,IC50,[50],833 nM
same,IC50,[51],845 nM
same,IC50,[52],222 nM
same,IC50,[53],290 nM
same,IC50,[54],255 nM
same,IC50,[55],133 nM
same,IC50,[56],196 nM
same,IC50,[57],84.3 nM
same,IC50,[58],261 nM
same,IC50,[59],909 nM
same,IC50,[60],220 nM
same,IC50,[61],502 nM
same,IC50,[62],> 1.02 µM
same,IC50,[63],89.4 nM
same,IC50,[64],860 nM
same,IC50,[65],144 nM
same,IC50,[66],405 nM
